Results: patent US10041937B2, “Macrophage identification agent, and identification method, sorting method, evaluation method, screening method and kit using the macrophage identifier agent” (CANON KABUSHIKI KAISHA, priority 2013, dated 2018)

The molecules below were run on M1 macrophages and M2 macrophages differentiated from mouse bone marrow cells (assay: Subtype identification by staining and flow cytometry of M1 and M2 macrophages differentiated from mouse bone marrow cells). Conditions: R=|FM1−FM2|/(WM1+WM2); compound 1 μM.
Type: cell-based, Balb/c mouse
Experimental: The culture of subtypes was performed according to a protocol described in NPL 7. Specifically, bone marrow cells collected from the femur of a Balb/c mouse of 8 to 10 weeks old were dispersed to a concentration of 1×10^6/mL in an IMDM containing 20% FBS and 1% P/S, and 1×10^7 cells were seeded in a 100 mm dish. After further adding an M-CSF (manufactured by Pepro Tech) thereto to a concentration of 50 ng/mL, the cells were incubated for 3 to 4 days in the presence of 5% CO2 at 37° C., so as to differentiate macrophage precursor cells to macrophages. After exchanging the medium, the M-CSF was added to a concentration of 50 ng/mL, and the incubation was performed for further 3 to 4 days in the presence of 5% CO2 at 37° C., and then, the resulting cells were differentiated to macrophage. By adding 200 ng of interferon-γ and 1 μg of […] (both manufactured by Pepro Tech) to the IMDM containing 5% FBS and 1% P/S, the cells were differentiated to the subtype M1. Besides, by adding 100 ng of IL-4 to the IMDM containing 5% FBS and 1% P/S, the cells were differentiated to the subtype M2. After performing the incubation for further 3 days in the presence of 5% CO2 at 37° C., the resultant was rinsed with PBS, and PBS containing 0.25% trypsin and 1 mM EDTA (ethylenediaminetetraacetic acid) was used for collecting, from the dish, the macrophages having been differentiated to the subtypes M1 and M2.
Thereafter, the tube was centrifuged at 180 G for 10 minutes to remove the supernatant, a dye for identifying dead cells (aqua fluorescent reactive dye, manufactured by Invitrogen; which is hereinafter sometimes abbreviated as aqua) was added thereto, and the resultant was incubated at 4° C. for 10 minutes. Subsequently, the tube was centrifuged at 180 G for 10 minutes to remove the supernatant, cells were suspended in a FACS buffer to be analyzed by using FACSCanto (trademark) II flow cytometry apparatus manufactured by BD.
The analysis was performed on a cell population showing a low signal for the aqua, so as to analyze a cell population from which dead cells were eliminated. […] A histogram was prepared by plotting fluorescence intensity obtained in the FITC channel on the abscissa and plotting the number of cells at each fluorescence intensity on the ordinate, which is shown in FIG. 2.
Histograms were prepared by plotting fluorescence intensities obtained in the respective channels on the abscissa and plotting the numbers of cells at each fluorescence intensity on the ordinate. A difference between a fluorescence intensity (FM1) at a peak top of the histogram of the M1 macrophage and a fluorescence intensity (FM2) at a peak top of the histogram of the M2 macrophage is divided by a sum of a peak width (WM1) of the histogram of the M1 macrophage and a peak width (WM2) of the histogram of the M2 macrophage, so as to obtain a resolution R, which was used as an index of the identification ability for a subtype (see the following expression (1)). Resolution R=|FM1−FM2|/(WM1+WM2) Expression (1)
COc1ccc(N2c3ccc(/C=c4/s/c(=C5/SC(=S)N(Cc6ccccc6)C5=O)n(CC(=O)O)c4=O)cc3C3CCCC32)cc1 (stereo not drawn) [(54)] was tested, and the “Resolution ratio R” value was 0.531. With CCOC(=O)Cn1c(=O)/c(=C\c2ccc3c(c2)C2CCCC2N3Cc2ccccc2)s/c1=C1/SC(=S)N(CC)C1=O (stereo not drawn) [(55)] the “Resolution ratio R” value was 0.206. With CCN1c2ccc(/C=C3/SC(=S)N(CCC(=O)O)C3=O)cc2CC1C (stereo not drawn) [(56)] the “Resolution ratio R” value was 0.207. For CCN1C(=O)/C(=c2\s/c(=C/c3ccc4c(c3)CC(C)N4CC)c(=O)n2CC(=O)O)SC1=S (stereo not drawn) [(57)], the “Resolution ratio R” value was 0.167. With CC1(C)C(/C=C/c2ccc3c(c2)C2CCCC2N3c2ccc(C=C(c3ccccc3)c3ccccc3)cc2)=[N+](CCC(=O)O)c2ccccc21 (stereo not drawn) [(59)] the “Resolution ratio R” value was 0.733. In the case of COc1ccc(N2c3ccc(/C=C/C4=[N+](CCC(=O)O)c5ccc6ccccc6c5C4(C)C)cc3C3CCCC32)cc1 (stereo not drawn) [(60)], the “Resolution ratio R” value is reported as 0.621. With COc1ccc(N2c3ccc(/C=C/C4=[N+](C)c5ccccc5C4(C)C)cc3C3CCCC32)cc1 (stereo not drawn) [(62)] the “Resolution ratio R” value was 0.561. In the case of CCN1c2ccc(/C=C/c3sc4ccccc4[n+]3CC(=O)O)cc2C2CCCC21 (stereo not drawn) [(65)], the “Resolution ratio R” value is reported as 0.236. In the case of N#C/C(=C\C=C\c1ccc2c(c1)C1CCCC1N2c1ccc(C=C(c2ccccc2)c2ccccc2)cc1)C(=O)O (stereo not drawn) [(74)], the “Resolution ratio R” value is reported as 0.538. For CCN1c2ccc(/C=C/C=C3/SC(=S)N(CCC(=O)O)C3=O)cc2C2CCCC21 (stereo not drawn) [(76)], the “Resolution ratio R” value was 0.283. With O=C(O)CN1C(=O)/C(=C\C=C\c2ccc3c(c2)C2CCCC2N3c2ccccc2)SC1=S (stereo not drawn) [(85)] the “Resolution ratio R” value was 0.179.

Same assay, conditions: fluorescence intensity at peak top of histogram; compound 1 μM, 37° C., 30 minutes
In the case of COc1ccc(N2c3ccc(/C=c4/s/c(=C5/SC(=S)N(Cc6ccccc6)C5=O)n(CC(=O)O)c4=O)cc3C3CCCC32)cc1 (stereo not drawn) [(54)], the “Peak position of M1 macrophage” value is reported as 154 and the “Peak position of M2 macrophage” value is reported as 211. For CCOC(=O)Cn1c(=O)/c(=C\c2ccc3c(c2)C2CCCC2N3Cc2ccccc2)s/c1=C1/SC(=S)N(CC)C1=O (stereo not drawn) [(55)], the “Peak position of M1 macrophage” value was 2.34 and the “Peak position of M2 macrophage” value was 1.86. In the case of CCN1c2ccc(/C=C3/SC(=S)N(CCC(=O)O)C3=O)cc2CC1C (stereo not drawn) [(56)], the “Peak position of M1 macrophage” value is reported as 4.90 and the “Peak position of M2 macrophage” value is reported as 6.36. With CCN1C(=O)/C(=c2\s/c(=C/c3ccc4c(c3)CC(C)N4CC)c(=O)n2CC(=O)O)SC1=S (stereo not drawn) [(57)] the “Peak position of M1 macrophage” value was 4.20 and the “Peak position of M2 macrophage” value was 3.59. CC1(C)C(/C=C/c2ccc3c(c2)C2CCCC2N3c2ccc(C=C(c3ccccc3)c3ccccc3)cc2)=[N+](CCC(=O)O)c2ccccc21 (stereo not drawn) [(59)] was tested, and the “Peak position of M1 macrophage” value was 188 and the “Peak position of M2 macrophage” value was 325. With COc1ccc(N2c3ccc(/C=C/C4=[N+](CCC(=O)O)c5ccc6ccccc6c5C4(C)C)cc3C3CCCC32)cc1 (stereo not drawn) [(60)] the “Peak position of M1 macrophage” value was 4.55 and the “Peak position of M2 macrophage” value was 7.65. For COc1ccc(N2c3ccc(/C=C/C4=[N+](C)c5ccccc5C4(C)C)cc3C3CCCC32)cc1 (stereo not drawn) [(62)], the “Peak position of M1 macrophage” value was 193 and the “Peak position of M2 macrophage” value was 333. In the case of CCN1c2ccc(/C=C/c3sc4ccccc4[n+]3CC(=O)O)cc2C2CCCC21 (stereo not drawn) [(65)], the “Peak position of M1 macrophage” value is reported as 2.96 and the “Peak position of M2 macrophage” value is reported as 4.67. For N#C/C(=C\C=C\c1ccc2c(c1)C1CCCC1N2c1ccc(C=C(c2ccccc2)c2ccccc2)cc1)C(=O)O (stereo not drawn) [(74)], the “Peak position of M1 macrophage” value was 2.52 and the “Peak position of M2 macrophage” value was 1.25. With CCN1c2ccc(/C=C/C=C3/SC(=S)N(CCC(=O)O)C3=O)cc2C2CCCC21 (stereo not drawn) [(76)] the “Peak position of M1 macrophage” value was 7.77 and the “Peak position of M2 macrophage” value was 10.5. For O=C(O)CN1C(=O)/C(=C\C=C\c2ccc3c(c2)C2CCCC2N3c2ccccc2)SC1=S (stereo not drawn) [(85)], the “Peak position of M1 macrophage” value was 225 and the “Peak position of M2 macrophage” value was 285.

Same assay, conditions: rated from resolution R
For COc1ccc(N2c3ccc(/C=c4/s/c(=C5/SC(=S)N(Cc6ccccc6)C5=O)n(CC(=O)O)c4=O)cc3C3CCCC32)cc1 (stereo not drawn) [(54)], the “Evaluation of macrophage subtype identification” value (“Evaluation” below) was “A (The compound is very good in the subtype identification (namely, the resolution R is 0.5 or more))”. For CCOC(=O)Cn1c(=O)/c(=C\c2ccc3c(c2)C2CCCC2N3Cc2ccccc2)s/c1=C1/SC(=S)N(CC)C1=O (stereo not drawn) [(55)], the “Evaluation” value was “B (the compound is good in the subtype identification (namely, the resolution R is 0.15 or more and less than 0.5))”. For CCN1c2ccc(/C=C3/SC(=S)N(CCC(=O)O)C3=O)cc2CC1C (stereo not drawn) [(56)], the “Evaluation” value was “B (the compound is good in the subtype identification (namely, the resolution R is 0.15 or more and less than 0.5))”. In the case of CCN1C(=O)/C(=c2\s/c(=C/c3ccc4c(c3)CC(C)N4CC)c(=O)n2CC(=O)O)SC1=S (stereo not drawn) [(57)], the “Evaluation” value is reported as “B (the compound is good in the subtype identification (namely, the resolution R is 0.15 or more and less than 0.5))”. For CC1(C)C(/C=C/c2ccc3c(c2)C2CCCC2N3c2ccc(C=C(c3ccccc3)c3ccccc3)cc2)=[N+](CCC(=O)O)c2ccccc21 (stereo not drawn) [(59)], the “Evaluation” value was “A (The compound is very good in the subtype identification (namely, the resolution R is 0.5 or more))”. In the case of COc1ccc(N2c3ccc(/C=C/C4=[N+](CCC(=O)O)c5ccc6ccccc6c5C4(C)C)cc3C3CCCC32)cc1 (stereo not drawn) [(60)], the “Evaluation” value is reported as “A (The compound is very good in the subtype identification (namely, the resolution R is 0.5 or more))”. COc1ccc(N2c3ccc(/C=C/C4=[N+](C)c5ccccc5C4(C)C)cc3C3CCCC32)cc1 (stereo not drawn) [(62)] was tested, and the “Evaluation” value was “A (The compound is very good in the subtype identification (namely, the resolution R is 0.5 or more))”. In the case of CCN1c2ccc(/C=C/c3sc4ccccc4[n+]3CC(=O)O)cc2C2CCCC21 (stereo not drawn) [(65)], the “Evaluation” value is reported as “B (the compound is good in the subtype identification (namely, the resolution R is 0.15 or more and less than 0.5))”. With N#C/C(=C\C=C\c1ccc2c(c1)C1CCCC1N2c1ccc(C=C(c2ccccc2)c2ccccc2)cc1)C(=O)O (stereo not drawn) [(74)] the “Evaluation” value was “A (The compound is very good in the subtype identification (namely, the resolution R is 0.5 or more))”. CCN1c2ccc(/C=C/C=C3/SC(=S)N(CCC(=O)O)C3=O)cc2C2CCCC21 (stereo not drawn) [(76)] was tested, and the “Evaluation” value was “B (the compound is good in the subtype identification (namely, the resolution R is 0.15 or more and less than 0.5))”. For O=C(O)CN1C(=O)/C(=C\C=C\c2ccc3c(c2)C2CCCC2N3c2ccccc2)SC1=S (stereo not drawn) [(85)], the “Evaluation” value was “B (the compound is good in the subtype identification (namely, the resolution R is 0.15 or more and less than 0.5))”.

Same assay, conditions: subtype strongly stained
COc1ccc(N2c3ccc(/C=C/C4=[N+](C)c5ccccc5C4(C)C)cc3C3CCCC32)cc1 (stereo not drawn) [(62)] was tested, and the Selectivity was “M2”.
